Where “and” joins values, the source holds several entries; their conditions need not be identical. Equal entries are not always repeated. Where two headings read alike, the source gives them in different places.
How the values were obtained:
[1] = biological target: T1, p38δ:PROTAC:VHL ternary complex (Homo sapiens, UniProt O15264+P40337); assay: SPR ternary complex affinity and kinetics; assay type: binding; settings: for Kd: equimolar p38δ:PROTAC injected onto immobilized GST-VBC
T1 construct: encoding a region spanning amino acids 1-365 was PCR-amplified; His6 (N); made in house; host or cells: E. coli (BL21-CodonPlus(DE3)-RIPL for p38δ; BL21(DE3) for GST-VBC)
Method: FIGS. 16A, 16B, and 16C. SPR curves assessing binary and ternary interactions. […] (C) SPR kinetic evaluation of p38δ:compound 46:VHL and p38δ:compound 50:VHL ternary complex interactions. Equimolar p38δ:PROTAC mixtures were injected onto immobilized GST-VBC and allowed to dissociate overtime. […] See Table 12 for a summary of the binary and ternary affinity and kinetic measurements.
Next, with the same setup, equimolar p38δ:PROTAC dilutions were successively injected onto immobilized VHL for 60 seconds, prior to monitoring complex dissociation for the remaining 300 seconds. This SPR strategy enabled us to determine effective ternary affinities for a given p38δ:PROTAC:VHL complex and compare the relative affinity change that occurs between VHL:PROTAC when p38δ is present in the mixture. […] This “enhanced” composite affinity is likely due to the additional PPIs between VHL and p38δ when in the presence of exemplary compound 46.
SPR experiments were conducted on a Biacore 3000 instrument (GE Healthcare) at room temperature. GST antibody was immobilized through direct amination onto a carboxymethylated dextran surface (CM5) and GST-VBC was captured on the CM5 surface. This prepared surface was equilibrated over three hours in running buffer (10 mM HEPES buffer pH 7.4, 150 mM NaCl, 0.4 mg mL^−1 BSA, 0.005% P20, 2% DMSO). All compounds were prepared in 100% DMSO stock plates with a top concentration of 500 μM in a 3× serial dilution. Exemplary compounds were transferred from the stock plate to the assay plate and diluted into running buffer without DMSO. Equimolar concentration of target protein was added to corresponding compound wells. All exemplary compounds were run as a twelve point-concentration series with a final assay top concentration of 50 μM to measure p38δ:PROTAC and VHL:PROTAC binding and top concentration of 5 μM to measure p38δ:PROTAC:VHL binding. All exemplary compounds were injected for 60 seconds and allowed to dissociate for 300 seconds. Data analysis was performed in Scrubber 2 (BioLogic Software). Blanks from reference flow cell containing immobilized GST-VBC were subtracted to correct for noise and data was solvent-corrected against a standard DMSO curve.

[2] = biological target: T2, p38α:PROTAC:VHL ternary complex (Homo sapiens, UniProt P40337+Q16539); assay: In vitro ternary complex pull-down with GST-VBC bait, purified p38α; assay type: binding
T2 construct: encodes a region spanning amino acids 2-360 of the human p38α kinase; made in house; host or cells: E. coli (BL21-CodonPlus(DE3)-RIPL for p38α; BL21(DE3) for GST-VBC)
Method: FIGS. 14A, 14B, and 14C. p38α selectivity is discriminated by ternary complex formation. (A) Only p38α incubated in the presence of exemplary compound 50 can be immunoprecipitated with GST-tagged VHL/EloB/EloC (VBC). Immobilized VBC was used as a bait to trap purified p38α in the presence of vehicle (DMSO), compound 50, or compound 46 (represented in micromolar concentrations). The rightmost lane represents a 1:25 dilution of initial input protein used in each pull-down. (B) Proximity-based AlphaLISA assay detects significant p38α:compound 50:VHL ternary complex, but no p38α:compound 46:VHL ternary complex. His-p38α and GST-VBC were incubated in the presence of increasing concentrations of compound 50 and compound 46 and the extent of ternary complex formation was assessed by excitation with incident light with 1=680 nm and capture of the emission light at 1=615 nm. Error bars represent the SD from quadruplicate experiments. […] FLAGimmunoprecipitated lysates were separated by SDS-PAGE and assessed via western blots detecting HA (Ub). […]
Following this logic, to the present disclosure seeks to describe the selectivity of exemplary compound 50 for p38α at the ternary complex level through the use of an in vitro ternary complex pull-down assay. […] Similarly, exemplary PROTACs 46 and 50 were evaluated in a proximity-based luminescence assay (AlphaLISA) to detect ternary complex formation. […]

[3] = SPR, immobilized GST-VBC, listed as Ex. 50

T1 sequence (O15264 whole entry, the tested form may be a part): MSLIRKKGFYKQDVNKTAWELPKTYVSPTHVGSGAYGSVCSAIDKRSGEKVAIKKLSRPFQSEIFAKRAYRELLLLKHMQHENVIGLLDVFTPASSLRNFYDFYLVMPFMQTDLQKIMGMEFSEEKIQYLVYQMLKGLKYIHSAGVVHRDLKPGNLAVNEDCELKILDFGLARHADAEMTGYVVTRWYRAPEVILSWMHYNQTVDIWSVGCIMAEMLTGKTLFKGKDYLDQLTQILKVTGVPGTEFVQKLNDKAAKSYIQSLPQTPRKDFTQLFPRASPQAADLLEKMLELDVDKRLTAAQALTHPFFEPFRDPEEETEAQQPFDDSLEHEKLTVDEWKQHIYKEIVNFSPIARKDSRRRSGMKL
T1 sequence (P40337 whole entry, the tested form may be a part): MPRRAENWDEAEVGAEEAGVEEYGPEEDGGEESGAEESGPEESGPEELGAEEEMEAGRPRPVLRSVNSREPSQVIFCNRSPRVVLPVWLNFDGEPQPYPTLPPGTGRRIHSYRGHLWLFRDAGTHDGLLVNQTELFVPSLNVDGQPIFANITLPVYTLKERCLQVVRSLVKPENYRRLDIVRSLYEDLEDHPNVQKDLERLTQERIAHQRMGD
T1 sequence (Q15370 whole entry partner, the tested form may be a part): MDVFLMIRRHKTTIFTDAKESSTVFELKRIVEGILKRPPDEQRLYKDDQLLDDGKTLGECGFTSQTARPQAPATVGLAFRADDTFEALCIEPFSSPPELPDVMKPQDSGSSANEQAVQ
T1 sequence (Q15369 whole entry partner, the tested form may be a part): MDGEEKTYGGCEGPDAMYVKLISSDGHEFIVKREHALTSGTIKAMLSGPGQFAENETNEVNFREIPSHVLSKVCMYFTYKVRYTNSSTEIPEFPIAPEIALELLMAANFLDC
T2 sequence (Q16539 2-360 limits assumed): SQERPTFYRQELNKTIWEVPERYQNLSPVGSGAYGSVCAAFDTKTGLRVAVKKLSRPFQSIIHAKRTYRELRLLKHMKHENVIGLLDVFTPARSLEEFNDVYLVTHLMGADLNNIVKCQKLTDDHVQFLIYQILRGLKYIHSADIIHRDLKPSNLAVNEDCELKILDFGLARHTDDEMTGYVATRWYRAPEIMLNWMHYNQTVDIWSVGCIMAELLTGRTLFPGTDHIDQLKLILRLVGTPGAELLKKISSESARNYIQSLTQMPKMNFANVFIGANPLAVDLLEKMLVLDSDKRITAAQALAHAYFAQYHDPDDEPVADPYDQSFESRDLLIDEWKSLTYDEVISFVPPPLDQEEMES
T2 sequence (P40337 whole entry, the tested form may be a part): as the sequence (P40337 whole entry, the tested form may be a part) above
T2 sequence (Q15370 whole entry partner, the tested form may be a part): as the sequence (Q15370 whole entry partner, the tested form may be a part) above
T2 sequence (Q15369 whole entry partner, the tested form may be a part): as the sequence (Q15369 whole entry partner, the tested form may be a part) above

SMILES | leftward shift of ternary affinity from the VHL:PROTAC binary affinity ([1]; SPR) | koff ([1]; SPR, immobilized GST-VBC) | kon ([1]; SPR, immobilized GST-VBC) | residence time ([1]; SPR, immobilized GST-VBC) | p38δ:PROTAC:VHL kon ([1]; SPR, immobilized GST-VBC, listed as Ex. 46) | Kd ([1]; read-out: p38δ:PROTAC:VHL Kd) | enrichment of purified p38α on GST-VBC bait [2] | off-rate quicker than the p38δ:compound 46:VHL complex ([1]; SPR) | residence time shorter than the p38δ:compound 46:VHL complex ([1]; SPR) | ternary affinity weaker than the exemplary compound 46-induced complex ([1]; SPR) | p38δ:PROTAC:VHL koff [1, 3] | p38δ:PROTAC:VHL kon [1, 3] | Kd ([1]; read-out: p38δ:PROTAC:VHL affinity)
COc1cc2c(Oc3ccc(NC(=O)C4(C(=O)Nc5ccc(F)cc5)CC4)cc3F)ccnc2cc1OCCOCCOCCOc1cc(-c2scnc2C)ccc1CNC(=O)[C@@H]1C[C@@H](O)CN1C(=O)[C@H](C(C)C)N1Cc2ccccc2C1=O [compound 46] | ~8 fold | 0.0175 s⁻¹ | 39600 M⁻¹ s⁻¹ | 5.5 min | 39621 M⁻¹ s⁻¹ | 436 nM | no detectable enrichment | – | – | – | – | – | –
COc1cc2c(Oc3ccc(NC(=O)C4(C(=O)Nc5ccc(F)cc5)CC4)cc3F)ccnc2cc1OCCCCOCCCCOCC(=O)N[C@H](C(=O)N1C[C@H](O)C[C@H]1C(=O)NCc1ccc(-c2scnc2C)cc1)C(C)(C)C [compound 50, N-(3-fluoro-4-((7-(4-(4-(2-(((S)-1-((2S,4R)-4-hydroxy-2-((4-(4-methylthiazol-5-yl)benzyl)carbamoyl)pyrrolidin-1-yl)-3,3-dimethyl-1-oxobutan-2-yl)amino)-2-oxoethoxy)butoxy)buto-xy)-6-methoxyquinolin-4-yl)oxy)phenyl)-N-(4-fluorophenyl)cyclopropane-1,1-dicarboxa-mide] | – | – | 70100 M⁻¹ s⁻¹ | 1.33 min | – | – | substantial enrichment of purified p38α | ~5 fold | ~4 fold | ~3 fold | 0.072 s⁻¹ | 70119 M⁻¹ s⁻¹ | 1200 nM and > 1000 nM

Reference: patent publication US20180353501A1 (Arvinas, Inc., priority 2017, published 2018)
